Assay results: patent publication US10463667B2 (Incyte Corporation, priority 2007, dated 2019)
pIC50: −log10 of the molar value.

How the values were obtained:
[1] = Intrinsic clearance assay (human liver microsomes); type: in vitro ADME; settings: both sexes; 1 μM compound, human liver microsomes 0.5 mg/mL protein, 37° C., 1 mM NADPH; read-out: Human Intrinsic CL (converted)
Method: Intrinsic Clearance Assay
The disappearance of the test compound was monitored by LC/MS at […] The slope of decline in compound concentration was used to calculate the human intrinsic clearance by employing standard methods reported in the literature.

[2] = target: human Jak3 (a.a. 781-1124) catalytic domain (Homo sapiens, UniProt P52333); assay: In vitro JAK kinase assay (HTRF), JAK3
[3] = target: T1, human Jak2 (a.a. 828-1132) catalytic domain (Homo sapiens, UniProt O60674); assay: In vitro JAK kinase assay (HTRF), JAK2; type: biochemical; settings: 30 μM ATP; ranges = lowest and highest values of the stereoisomers tested; read-out: JAK 2 IC50
T1 construct: Jak2 (a.a. 828-1132); His tag (N); made in house; host or cells: insect cells (baculovirus)

[4] = target: human JAK1 (a.a. 837-1142) catalytic domain (Homo sapiens, UniProt P23458); assay: In vitro JAK kinase assay (HTRF), JAK1
human JAK1 (a.a. 837-1142) catalytic domain, sequence (P23458 849-1154): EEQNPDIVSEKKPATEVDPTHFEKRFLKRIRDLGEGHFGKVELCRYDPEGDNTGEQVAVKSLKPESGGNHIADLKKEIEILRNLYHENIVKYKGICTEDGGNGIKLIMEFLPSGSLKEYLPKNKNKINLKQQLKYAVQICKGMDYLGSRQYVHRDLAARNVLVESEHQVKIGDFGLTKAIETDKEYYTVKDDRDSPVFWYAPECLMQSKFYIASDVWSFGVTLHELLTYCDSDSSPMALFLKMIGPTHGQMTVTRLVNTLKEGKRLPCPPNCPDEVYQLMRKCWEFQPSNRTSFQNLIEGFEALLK

human Jak3 (a.a. 781-1124) catalytic domain, sequence (P52333 781-1124): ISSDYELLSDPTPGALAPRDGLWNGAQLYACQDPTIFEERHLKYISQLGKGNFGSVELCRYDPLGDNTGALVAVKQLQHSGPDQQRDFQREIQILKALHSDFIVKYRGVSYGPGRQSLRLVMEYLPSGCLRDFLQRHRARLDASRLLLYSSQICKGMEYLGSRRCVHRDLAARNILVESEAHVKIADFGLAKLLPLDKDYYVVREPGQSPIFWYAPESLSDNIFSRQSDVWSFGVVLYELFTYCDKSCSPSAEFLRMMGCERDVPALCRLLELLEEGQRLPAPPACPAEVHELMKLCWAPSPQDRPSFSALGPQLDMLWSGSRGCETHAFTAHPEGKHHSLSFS
T1 sequence (O60674 828-1132): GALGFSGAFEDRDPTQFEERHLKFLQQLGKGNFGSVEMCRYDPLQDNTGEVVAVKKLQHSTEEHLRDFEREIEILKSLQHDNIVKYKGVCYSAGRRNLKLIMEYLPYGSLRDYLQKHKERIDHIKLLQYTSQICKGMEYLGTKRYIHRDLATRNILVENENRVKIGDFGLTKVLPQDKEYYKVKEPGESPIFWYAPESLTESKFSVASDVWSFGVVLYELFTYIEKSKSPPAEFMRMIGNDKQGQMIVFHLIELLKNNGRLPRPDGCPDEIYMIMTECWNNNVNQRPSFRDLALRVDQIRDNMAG

Row | CLint scaled at 1 μM [1] [mL/min/kg] | pIC50 [2] | pIC50 [3] | pIC50 [4] | SMILES
1 | 11.3 | – | – | – | N#CC[C@H](C1CCCC1)n1cc(-c2ncnc3[nH]ccc23)cn1 [Compound 1, (R)-3-(4-(7H-pyrrolo[2,3-d]pyrimidin-4-yl)-1H-pyrazol-1-yl)-3-cyclopentylpropanenitrile, reference compound]
2 | < 8.33 | 7.35 to 8.08 | 8.60 to 9.15 | 7.92 to 8.60 | N#CCC(C1CCC(O)C1)n1cc(-c2ncnc3[nH]ccc23)cn1 (stereo not shown) [Metabolite 1, 3-(4-(7H-pyrrolo[2,3-d]pyrimidin-4-yl)-1H-pyrazol-1-yl)-3-(3-hydroxycyclopentyl)propanenitrile]
3 | < 8.33 | 7.52 to 7.77 | 8.55 to 8.70 | 7.82 to 8.52 | N#CCC(C1CCCC1O)n1cc(-c2ncnc3[nH]ccc23)cn1 (stereo not shown) [Metabolite 2, 3-(4-(7H-pyrrolo[2,3-d]pyrimidin-4-yl)-1H-pyrazol-1-yl)-3-(2-hydroxycyclopentyl)propanenitrile]
4 | < 9.5 | 7.39 to 7.96 | 8.23 to 8.68 | 7.92 to 8.57 | N#CCC(C1CCC(=O)C1)n1cc(-c2ncnc3[nH]ccc23)cn1 (stereo not shown) [Metabolite 3, 3-(4-(7H-pyrrolo[2,3-d]pyrimidin-4-yl)-1H-pyrazol-1-yl)-3-(3-oxycyclopentyl)propanenitrile]
